# Data published in paper PMC11676817, “Antiproliferative and Morphological Analysis Triggered by Drugs Contained in the Medicines for Malaria Venture COVID-Box Against Toxoplasma gondii Tachyzoites” (Microorganisms, 2024).
# Where two headings read alike, the source gives them in different places.
# Key:
# [1] = test system: Toxoplasma gondii tachyzoites of the RH strain; assay: microbe, parasite or virus in culture; details: 168 h; for inhibition at 1 µM: read-out: Inhibition of tachyzoite proliferation
# [2] = cited from earlier work
# [3] = test system: Toxoplasma gondii tachyzoites of the RH strain
# in vitro = details: human
# [4] = Rat, cited from earlier work
# [5] = test system: Toxoplasma gondii tachyzoites of the RH strain; assay: microbe, parasite or virus in culture; type: cell-based; details: Toxoplasma gondii, 24 h of treatment, read-out: Proliferation index (%)
# [6] = NHDF, read-out: IC50 (μM) in Tachyzoites, RH strain in NHDF cells, plaque assay, 7 days of treatment
# [7] = Human, ref Table S3 supplementary refs 1, 4, 8, 11, 13, 15, 17, 18, 19, 23, 31
# [8] = read-out: Plasma concentration (Cmax), Human, ref Table S3 supplementary refs 1, 4, 8, 11, 13, 15, 17, 18, 19, 23
# [9] = read-out: IC50 against T. gondii proliferation, RH strain, 7 days of treatment
smiles,measurement,setting,value
Cc1ccc(C(=O)Nc2ccc(CN3CCN(C)CC3)c(C(F)(F)F)c2)cc1C#Cc1cnc2cccnn12 [Ponatinib],IC50,[1]; [6],0.33 ± 0.03 µM
same,Plasma concentration (Cmax),[2]; [7],123 ng/mL
same,Cmax,[2]; [8],231 nM
"CCC(C)n1ncn(-c2ccc(N3CCN(c4ccc(OCC5COC(Cn6cncn6)(c6ccc(Cl)cc6Cl)O5)cc4)CC3)cc2)c1=O (stereo not drawn) [itraconazole, Itraconazole]",inhibition at 1 µM,[1],≥ 70%
"C[C@H]1c2cccc(O)c2C(=O)C2=C(O)[C@]3(O)C(=O)C(C(N)=O)=C(O)[C@@H](N(C)C)[C@@H]3[C@@H](O)[C@@H]21 [doxycycline, Doxycycline]",inhibition at 1 µM,[1],≥ 70%
O=c1[nH]c2ccccc2n1C1CCN(CCCC(c2ccc(F)cc2)c2ccc(F)cc2)CC1 [Pimozide],IC50,[1]; [6],0.64 ± 0.15 µM
"C[C@@H]1O[C@@H](O[C@@H]2C=C3CC[C@@H]4[C@H](CC[C@]5(C)[C@@H](c6ccc(=O)oc6)CC[C@]45O)[C@@]3(C)CC2)[C@H](O)[C@H](O)[C@H]1O [proscillaridin, Proscillaridin]",inhibition at 1 µM,[1],≥ 70%
same,Cytotoxicity for the host cells during the initial screening,"[3]; 1 µM, NHDF host cells",signs of cytotoxicity for the host cells
"CCCCc1oc2ccccc2c1C(=O)c1cc(I)c(OCCN(CC)CC)c(I)c1 [amiodarone, Amiodarone]",Cytotoxicity for the host cells during the initial screening,[3],signs of cytotoxicity for the host cells
CC[C@H]1CN2CCc3cc(OC)c(OC)cc3[C@@H]2C[C@@H]1C[C@H]1NCCc2cc(OC)c(OC)cc21 [Emetine],CC50 at 7 days,in vitro,1020 ± 190 nM
same,IC50,[1]; [9],< 0.1 µM
same,IC50,[1]; [6],0.05 ± 0.01 µM
same,Plasma concentration (Cmax),[2]; [7],9.6 ng/mL
same,Cmax,[2]; [8],20 nM
CC(C)(C)Cn1c(N)nc2ccc(-c3[nH]c(C(C)(C)C)nc3-c3ccc(F)cc3)nc21 [LY2228820],IC50,[1]; [9],< 0.1 µM
same,IC50,[1]; [6],0.04 µM
COC(=O)C1=C(C)NC(C)=C(C(=O)OCCN2CCN(C(c3ccccc3)c3ccccc3)CC2)C1c1cccc([N+](=O)[O-])c1 (stereo not drawn) [Manidipine],IC50,[1]; [6],0.74 ± 0.09 µM
same,Cmax,"[2]; human, in vivo",9 nM
same,Plasma concentration (Cmax),"[2]; human, in vivo",5.53 ng/mL
"C[C@H]1O[C@@H](O[C@H]2[C@@H](O)C[C@H](O[C@H]3[C@@H](O)C[C@H](O[C@H]4CC[C@@]5(C)[C@H](CC[C@@H]6[C@@H]5CC[C@]5(C)[C@@H](C7=CC(=O)OC7)CC[C@]65O)C4)O[C@@H]3C)O[C@@H]2C)C[C@H](O)[C@@H]1O [digitoxin, Digitoxin]",inhibition at 1 µM,[1],≥ 70%
"COc1cccc2c1C(=O)c1c(O)c3c(c(O)c1C2=O)C[C@@](O)(C(=O)CO)C[C@@H]3O[C@H]1C[C@H](N)[C@H](O)[C@H](C)O1 [doxorubicin, Doxorubicin]",inhibition at 1 µM,[1],≥ 70%
COc1cc2c3cc1Oc1c(OC)c(OC)cc4c1[C@@H](Cc1ccc(O)c(c1)Oc1ccc(cc1)C[C@@H]3N(C)CC2)N(C)CC4 [Berbamine],CC50 at 7 days,in vitro,4610 ± 7520 nM
same,selectivity ratio at 7 days,in vitro,15
same,IC50,[1]; [6],0.31 ± 0.03 µM
same,Plasma concentration (Cmax),"[4]; ref Table S3 supplementary refs 3, 10, 12, 21",32.6 ng/mL
same,Cmax,"[4]; read-out: Plasma concentration (Cmax), ref Table S3 supplementary refs 3, 10, 12, 28, 32",53.6 nM
C[C@H]1O[C@@H](O[C@H]2[C@@H](O)C[C@H](O[C@H]3[C@@H](O)C[C@H](O[C@H]4CC[C@@]5(C)[C@H](CC[C@@H]6[C@@H]5C[C@@H](O)[C@]5(C)[C@@H](C7=CC(=O)OC7)CC[C@]65O)C4)O[C@@H]3C)O[C@@H]2C)C[C@H](O)[C@@H]1O [Digoxin],CC50 at 7 days,in vitro,340 ± 320 nM
same,IC50,[1]; [9],≤ 0.03 µM
same,IC50,[1]; [6],0.03 ± 0.01 µM
CCc1nc(N)nc(N)c1-c1ccc(Cl)cc1 [Pyrimethamine],activity at 0.125 µM,[5]; 125 nM,87.3%
same,activity at […],[5]; 250 nM,56.6%
same,activity at 0.5 µM,[5]; 500 nM,39.2%
same,activity at 1 µM,[5]; 1000 nM,22%
